ChEMBL document CHEMBL1144238, “Identification and SAR around N-{2-[4-(2,3-dihydro-benzo[1,4]dioxin-2-ylmethyl)-[1,4]diazepan-1-yl]-ethyl}-2-phenoxy-nicotinamide, a selective alpha2C adrenergic receptor antagonist” (Bioorg Med Chem Lett, 2008)

Experiments:
[1] = molecular target: T1, Alpha-2C adrenergic receptor (Homo sapiens, UniProt P18825); test: Binding affinity at human recombinant adrenergic Alpha-2C receptor expressed in CHO cells by radioligand binding assay; format: cell-based
T1 sequence (P18825 whole entry): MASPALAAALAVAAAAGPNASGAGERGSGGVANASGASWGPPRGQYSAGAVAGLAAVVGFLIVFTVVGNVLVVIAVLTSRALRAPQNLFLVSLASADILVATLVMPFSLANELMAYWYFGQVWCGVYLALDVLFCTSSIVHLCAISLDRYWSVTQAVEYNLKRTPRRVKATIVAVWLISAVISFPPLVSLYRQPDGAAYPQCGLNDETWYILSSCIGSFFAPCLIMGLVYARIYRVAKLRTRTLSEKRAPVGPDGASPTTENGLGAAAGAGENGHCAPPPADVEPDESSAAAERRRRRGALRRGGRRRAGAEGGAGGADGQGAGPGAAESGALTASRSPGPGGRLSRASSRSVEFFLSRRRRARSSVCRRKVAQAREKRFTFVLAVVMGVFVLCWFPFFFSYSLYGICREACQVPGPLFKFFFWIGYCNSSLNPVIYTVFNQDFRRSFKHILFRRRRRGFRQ

[2] = molecular target: T2, Alpha-2B adrenergic receptor (Homo sapiens, UniProt P18089); test: Binding affinity at human recombinant adrenergic alpha2B receptor expressed in CHO cells by radioligand binding assay; format: cell-based
T2 sequence (P18089 whole entry): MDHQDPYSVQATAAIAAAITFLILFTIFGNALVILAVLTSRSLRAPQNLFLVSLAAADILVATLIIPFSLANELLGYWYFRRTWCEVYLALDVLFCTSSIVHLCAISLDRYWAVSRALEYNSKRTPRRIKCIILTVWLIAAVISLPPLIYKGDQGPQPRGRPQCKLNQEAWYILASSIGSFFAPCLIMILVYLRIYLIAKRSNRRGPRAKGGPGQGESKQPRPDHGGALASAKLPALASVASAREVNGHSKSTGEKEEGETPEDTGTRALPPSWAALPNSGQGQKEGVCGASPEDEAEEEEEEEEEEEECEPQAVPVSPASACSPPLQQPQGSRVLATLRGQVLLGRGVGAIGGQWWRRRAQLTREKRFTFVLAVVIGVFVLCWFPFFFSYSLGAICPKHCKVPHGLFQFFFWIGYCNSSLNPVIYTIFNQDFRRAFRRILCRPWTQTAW

[3] = molecular target: T3, Alpha-2A adrenergic receptor (Homo sapiens, UniProt P08913); test: Binding affinity at human recombinant adrenergic alpha2A receptor expressed in CHO cells by radioligand binding assay; format: cell-based
T3 sequence (P08913 whole entry): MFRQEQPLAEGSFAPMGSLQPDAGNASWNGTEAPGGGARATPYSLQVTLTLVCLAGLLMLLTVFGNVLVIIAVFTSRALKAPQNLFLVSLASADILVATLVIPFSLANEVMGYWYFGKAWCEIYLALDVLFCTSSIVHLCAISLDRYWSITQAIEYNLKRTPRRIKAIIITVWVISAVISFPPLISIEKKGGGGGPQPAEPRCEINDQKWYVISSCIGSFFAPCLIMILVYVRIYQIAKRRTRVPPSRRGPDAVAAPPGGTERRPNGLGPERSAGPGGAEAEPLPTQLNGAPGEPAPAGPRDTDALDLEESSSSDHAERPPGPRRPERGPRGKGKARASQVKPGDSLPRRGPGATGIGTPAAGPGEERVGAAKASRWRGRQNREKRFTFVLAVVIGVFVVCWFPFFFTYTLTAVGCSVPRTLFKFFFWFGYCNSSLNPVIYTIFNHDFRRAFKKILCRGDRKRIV

[4] = molecular target: T1, Alpha-2C adrenergic receptor; test: Antagonist activity at human recombinant adrenergic Alpha-2C receptor expressed in CHO cells assessed as inhibition of NE-induced calcium mobilization by FLIPR; format: functional, cell-based
[5] = molecular target: T2, Alpha-2B adrenergic receptor; test: Antagonist activity at human recombinant adrenergic alpha2B receptor expressed in CHO cells assessed as inhibition of NE-induced calcium mobilization by FLIPR; format: functional, cell-based
[6] = molecular target: T3, Alpha-2A adrenergic receptor; test: Antagonist activity at human recombinant adrenergic alpha2A receptor expressed in CHO cells assessed as inhibition of NE-induced calcium mobilization by FLIPR; format: functional, cell-based
[7] = species on record: Homo sapiens; test: Selectivity for human recombinant adrenergic Alpha-2C receptor over human recombinant adrenergic alpha2B receptor by radioligand binding assay
[8] = species on record: Homo sapiens; test: Selectivity for human recombinant adrenergic Alpha-2C receptor over human recombinant adrenergic alpha2A receptor by radioligand binding assay
[9] = species on record: Homo sapiens; test: Selectivity human recombinant adrenergic Alpha-2C receptor over human recombinant adrenergic alpha2B receptor by FLIPR
[10] = species on record: Homo sapiens; test: Selectivity human recombinant adrenergic Alpha-2C receptor over human recombinant adrenergic alpha2A receptor by FLIPR
[11] = molecular target: Alpha-2C adrenergic receptor (Rattus norvegicus) (UniProt P22086); test: Binding affinity to rat adrenergic Alpha-2C receptor by radioligand binding assay
Sequence of Alpha-2C adrenergic receptor (Rattus norvegicus) (P22086 whole entry): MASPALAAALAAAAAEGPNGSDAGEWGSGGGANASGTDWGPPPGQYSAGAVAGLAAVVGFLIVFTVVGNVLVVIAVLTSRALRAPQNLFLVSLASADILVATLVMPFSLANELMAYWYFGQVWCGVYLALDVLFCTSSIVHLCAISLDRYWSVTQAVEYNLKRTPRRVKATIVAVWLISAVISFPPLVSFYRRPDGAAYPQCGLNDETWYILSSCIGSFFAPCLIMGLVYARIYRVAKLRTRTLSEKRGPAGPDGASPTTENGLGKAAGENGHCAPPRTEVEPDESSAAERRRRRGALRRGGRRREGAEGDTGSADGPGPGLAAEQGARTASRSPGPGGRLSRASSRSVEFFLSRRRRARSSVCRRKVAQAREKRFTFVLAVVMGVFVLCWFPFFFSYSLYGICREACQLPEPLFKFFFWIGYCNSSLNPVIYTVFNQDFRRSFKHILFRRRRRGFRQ

[12] = molecular target: Alpha-2A adrenergic receptor (Rattus norvegicus) (UniProt P22909); test: Binding affinity to rat adrenergic alpha2A receptor by radioligand binding assay
[13] = molecular target: Alpha-2B adrenergic receptor (Rattus norvegicus) (UniProt P19328); test: Binding affinity to rat adrenergic alpha2B receptor by radioligand binding assay
[14] = molecular target: Alpha-1A adrenergic receptor (Homo sapiens) (UniProt P35348); test: Binding affinity to human adrenergic alpha1A receptor
Sequence of Alpha-1A adrenergic receptor (Homo sapiens) (P35348 whole entry): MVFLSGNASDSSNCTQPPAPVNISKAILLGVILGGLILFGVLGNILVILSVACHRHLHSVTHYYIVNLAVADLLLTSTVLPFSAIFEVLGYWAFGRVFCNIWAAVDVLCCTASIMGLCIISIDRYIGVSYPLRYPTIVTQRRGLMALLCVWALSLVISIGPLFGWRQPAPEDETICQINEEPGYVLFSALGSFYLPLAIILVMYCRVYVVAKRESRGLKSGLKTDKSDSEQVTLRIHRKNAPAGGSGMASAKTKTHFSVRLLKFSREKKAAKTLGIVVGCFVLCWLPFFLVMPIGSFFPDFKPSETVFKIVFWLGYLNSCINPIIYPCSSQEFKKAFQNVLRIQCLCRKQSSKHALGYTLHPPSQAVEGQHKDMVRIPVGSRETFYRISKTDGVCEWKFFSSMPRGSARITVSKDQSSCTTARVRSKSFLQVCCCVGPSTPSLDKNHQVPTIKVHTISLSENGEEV

[15] = molecular target: 5-hydroxytryptamine receptor 1A (Homo sapiens) (UniProt P08908); test: Binding affinity to human 5HT1A receptor
Sequence of 5-hydroxytryptamine receptor 1A (Homo sapiens) (P08908 whole entry): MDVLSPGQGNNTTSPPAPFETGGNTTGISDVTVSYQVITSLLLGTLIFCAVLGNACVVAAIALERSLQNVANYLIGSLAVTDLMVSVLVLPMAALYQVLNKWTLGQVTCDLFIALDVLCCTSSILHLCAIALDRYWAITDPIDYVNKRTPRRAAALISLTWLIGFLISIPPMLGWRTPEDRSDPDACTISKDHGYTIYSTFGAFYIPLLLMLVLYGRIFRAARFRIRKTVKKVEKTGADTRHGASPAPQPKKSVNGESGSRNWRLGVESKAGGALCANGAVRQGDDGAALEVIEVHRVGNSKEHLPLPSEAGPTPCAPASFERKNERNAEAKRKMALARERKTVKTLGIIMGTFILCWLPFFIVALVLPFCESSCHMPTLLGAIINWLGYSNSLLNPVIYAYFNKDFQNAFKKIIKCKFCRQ

[16] = molecular target: 5-hydroxytryptamine receptor 1B (Homo sapiens) (UniProt P28222); test: Binding affinity to human 5HT1B receptor at 10 uM
[17] = molecular target: 5-hydroxytryptamine receptor 2A (Homo sapiens) (UniProt P28223); test: Binding affinity to human 5HT2A receptor
[18] = molecular target: 5-hydroxytryptamine receptor 2B (Homo sapiens) (UniProt P41595); test: Binding affinity to human 5HT2B receptor
Sequence of 5-hydroxytryptamine receptor 2B (Homo sapiens) (P41595 whole entry): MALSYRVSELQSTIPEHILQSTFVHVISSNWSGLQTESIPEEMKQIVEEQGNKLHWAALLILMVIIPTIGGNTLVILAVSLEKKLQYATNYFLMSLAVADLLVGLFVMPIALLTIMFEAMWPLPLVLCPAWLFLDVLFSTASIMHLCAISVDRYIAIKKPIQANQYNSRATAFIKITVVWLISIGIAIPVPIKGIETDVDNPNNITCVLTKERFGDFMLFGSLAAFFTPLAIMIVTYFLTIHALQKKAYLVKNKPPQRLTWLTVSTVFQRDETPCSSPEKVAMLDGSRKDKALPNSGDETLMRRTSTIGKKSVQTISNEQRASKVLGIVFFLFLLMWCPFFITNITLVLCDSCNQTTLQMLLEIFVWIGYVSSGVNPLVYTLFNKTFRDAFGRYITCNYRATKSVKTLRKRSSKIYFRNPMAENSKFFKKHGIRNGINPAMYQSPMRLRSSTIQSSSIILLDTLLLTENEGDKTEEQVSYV

[19] = molecular target: 5-hydroxytryptamine receptor 7 (Homo sapiens) (UniProt P34969); test: Binding affinity to human 5HT7 receptor
[20] = molecular target: D(2) dopamine receptor (Homo sapiens) (UniProt P14416); test: Binding affinity to human dopamine D2 receptor
[21] = molecular target: D(3) dopamine receptor (Homo sapiens) (UniProt P35462); test: Binding affinity to human dopamine D3 receptor
[22] = molecular target: D(4) dopamine receptor (Homo sapiens) (UniProt P21917); test: Binding affinity to human dopamine D4 receptor at 1 uM
[23] = molecular target: Muscarinic acetylcholine receptor M1 (Homo sapiens) (UniProt P11229); test: Binding affinity to human muscarinic M1 receptor at 10 uM
[24] = molecular target: Muscarinic acetylcholine receptor M2 (Homo sapiens) (UniProt P08172); test: Binding affinity to human muscarinic M2 receptor
Sequence of Muscarinic acetylcholine receptor M2 (Homo sapiens) (P08172 whole entry): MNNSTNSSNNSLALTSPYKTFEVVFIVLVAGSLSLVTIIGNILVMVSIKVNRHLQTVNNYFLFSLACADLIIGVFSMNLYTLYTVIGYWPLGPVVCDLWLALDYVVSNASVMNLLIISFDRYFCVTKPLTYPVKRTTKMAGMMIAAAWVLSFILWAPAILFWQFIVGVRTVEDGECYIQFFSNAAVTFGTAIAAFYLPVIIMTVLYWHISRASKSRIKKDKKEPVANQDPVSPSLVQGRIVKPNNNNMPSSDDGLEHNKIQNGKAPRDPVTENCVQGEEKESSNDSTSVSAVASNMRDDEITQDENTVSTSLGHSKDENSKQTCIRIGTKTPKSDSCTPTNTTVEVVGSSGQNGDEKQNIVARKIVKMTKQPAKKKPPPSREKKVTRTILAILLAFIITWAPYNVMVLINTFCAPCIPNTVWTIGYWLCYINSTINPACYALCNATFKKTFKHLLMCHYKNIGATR

[25] = molecular target: Muscarinic acetylcholine receptor M3 (Homo sapiens) (UniProt P20309); test: Binding affinity to human muscarinic M3 receptor at 10 uM
Sequence of Muscarinic acetylcholine receptor M3 (Homo sapiens) (P20309 whole entry, looked up): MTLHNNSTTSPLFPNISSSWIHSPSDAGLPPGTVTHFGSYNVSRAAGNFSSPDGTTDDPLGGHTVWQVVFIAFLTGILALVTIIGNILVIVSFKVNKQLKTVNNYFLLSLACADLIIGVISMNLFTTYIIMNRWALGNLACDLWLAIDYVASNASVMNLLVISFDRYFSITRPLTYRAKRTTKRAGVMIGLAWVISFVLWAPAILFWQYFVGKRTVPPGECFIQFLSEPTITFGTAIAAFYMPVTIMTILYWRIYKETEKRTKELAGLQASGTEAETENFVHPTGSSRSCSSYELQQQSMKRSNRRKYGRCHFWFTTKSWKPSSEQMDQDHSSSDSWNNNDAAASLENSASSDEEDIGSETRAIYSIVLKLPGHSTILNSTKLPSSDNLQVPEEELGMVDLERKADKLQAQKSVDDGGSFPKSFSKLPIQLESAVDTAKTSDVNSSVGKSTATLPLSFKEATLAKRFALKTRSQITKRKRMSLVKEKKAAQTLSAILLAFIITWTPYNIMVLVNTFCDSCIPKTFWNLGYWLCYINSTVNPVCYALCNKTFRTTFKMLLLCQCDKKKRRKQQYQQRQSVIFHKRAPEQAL

[26] = molecular target: Sodium-dependent noradrenaline transporter (Homo sapiens) (UniProt P23975); test: Binding affinity to human NET
Sequence of Sodium-dependent noradrenaline transporter (Homo sapiens) (P23975 whole entry): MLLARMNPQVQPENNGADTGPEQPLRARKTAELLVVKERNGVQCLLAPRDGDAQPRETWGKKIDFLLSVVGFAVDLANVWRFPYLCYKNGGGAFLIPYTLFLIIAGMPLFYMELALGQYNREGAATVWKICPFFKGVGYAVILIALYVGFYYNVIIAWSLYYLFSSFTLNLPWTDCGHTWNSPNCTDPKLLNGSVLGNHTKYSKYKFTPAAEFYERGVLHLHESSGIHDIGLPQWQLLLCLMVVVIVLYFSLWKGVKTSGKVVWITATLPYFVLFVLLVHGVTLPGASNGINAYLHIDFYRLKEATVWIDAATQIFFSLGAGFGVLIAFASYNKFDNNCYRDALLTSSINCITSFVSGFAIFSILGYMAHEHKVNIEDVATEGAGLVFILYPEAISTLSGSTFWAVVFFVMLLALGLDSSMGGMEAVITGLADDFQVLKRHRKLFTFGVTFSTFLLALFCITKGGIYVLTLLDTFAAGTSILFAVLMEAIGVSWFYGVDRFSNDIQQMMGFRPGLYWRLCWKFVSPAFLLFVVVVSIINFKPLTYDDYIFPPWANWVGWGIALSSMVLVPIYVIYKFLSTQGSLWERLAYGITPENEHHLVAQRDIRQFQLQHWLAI

[27] = molecular target: Sodium-dependent dopamine transporter (Homo sapiens) (UniProt Q01959); test: Binding affinity to human DAT
Sequence of Sodium-dependent dopamine transporter (Homo sapiens) (Q01959 whole entry): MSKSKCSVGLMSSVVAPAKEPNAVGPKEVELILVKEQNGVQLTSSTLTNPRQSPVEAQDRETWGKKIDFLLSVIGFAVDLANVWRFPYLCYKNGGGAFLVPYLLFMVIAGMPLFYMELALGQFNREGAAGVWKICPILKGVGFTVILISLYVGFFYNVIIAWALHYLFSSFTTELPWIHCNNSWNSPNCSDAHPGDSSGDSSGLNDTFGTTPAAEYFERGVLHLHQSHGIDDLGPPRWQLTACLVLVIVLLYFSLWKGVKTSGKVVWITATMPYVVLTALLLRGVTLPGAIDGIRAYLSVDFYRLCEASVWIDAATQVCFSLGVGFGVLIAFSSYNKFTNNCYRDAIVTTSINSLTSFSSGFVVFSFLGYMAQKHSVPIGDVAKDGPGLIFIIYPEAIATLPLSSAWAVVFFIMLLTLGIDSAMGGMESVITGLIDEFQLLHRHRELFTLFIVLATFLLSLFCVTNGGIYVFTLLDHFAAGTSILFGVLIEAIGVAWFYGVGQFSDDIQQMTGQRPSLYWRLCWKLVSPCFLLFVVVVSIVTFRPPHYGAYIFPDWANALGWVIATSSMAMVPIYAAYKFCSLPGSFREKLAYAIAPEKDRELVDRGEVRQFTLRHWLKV

[28] = molecular target: Sodium-dependent serotonin transporter (Homo sapiens) (UniProt P31645); test: Binding affinity to human SERT
[29] = molecular target: Histamine H1 receptor (Homo sapiens) (UniProt P35367); test: Binding affinity to human histamine H1 receptor 1 uM
Sequence of Histamine H1 receptor (Homo sapiens) (P35367 whole entry): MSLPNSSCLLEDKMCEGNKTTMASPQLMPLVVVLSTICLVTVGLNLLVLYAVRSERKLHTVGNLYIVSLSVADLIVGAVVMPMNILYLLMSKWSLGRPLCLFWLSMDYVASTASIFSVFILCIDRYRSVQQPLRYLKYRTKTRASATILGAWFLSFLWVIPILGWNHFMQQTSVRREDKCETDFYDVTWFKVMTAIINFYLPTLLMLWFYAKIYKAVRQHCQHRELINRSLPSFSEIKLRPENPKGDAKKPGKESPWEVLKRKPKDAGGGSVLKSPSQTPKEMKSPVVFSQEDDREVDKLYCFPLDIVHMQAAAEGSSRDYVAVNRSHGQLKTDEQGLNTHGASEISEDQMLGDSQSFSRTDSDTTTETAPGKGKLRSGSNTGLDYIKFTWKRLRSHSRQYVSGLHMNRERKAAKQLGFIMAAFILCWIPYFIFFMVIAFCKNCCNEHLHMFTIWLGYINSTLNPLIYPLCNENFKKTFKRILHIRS

[30] = molecular target: Histamine H2 receptor (Homo sapiens) (UniProt P25021); test: Binding affinity to human histamine H2 receptor
Sequence of Histamine H2 receptor (Homo sapiens) (P25021 whole entry): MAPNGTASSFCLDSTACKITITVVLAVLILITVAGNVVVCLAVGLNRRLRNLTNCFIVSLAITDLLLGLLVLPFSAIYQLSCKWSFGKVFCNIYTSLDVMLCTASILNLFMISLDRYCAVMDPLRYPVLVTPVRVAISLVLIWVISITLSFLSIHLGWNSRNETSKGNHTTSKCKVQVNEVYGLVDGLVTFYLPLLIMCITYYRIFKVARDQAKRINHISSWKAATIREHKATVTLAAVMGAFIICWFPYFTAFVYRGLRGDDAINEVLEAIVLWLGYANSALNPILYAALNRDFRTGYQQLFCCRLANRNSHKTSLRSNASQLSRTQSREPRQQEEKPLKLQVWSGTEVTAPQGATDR

[31] = tested on: Plasma; test: Drug level in Wistar Kyoto rat plasma at 3 mg/kg, sc; format: ADME, organism-based; design: dose 3 mg/kg, route subcutaneous; details: in vivo
[32] = tested on: Brain; test: Drug level in Wistar Kyoto rat brain at 3 mg/kg, sc; format: ADME, organism-based; design: dose 3 mg/kg, route subcutaneous; details: in vivo
[33] = tested on: Cerebrospinal fluid; test: Drug level in Wistar Kyoto rat cerebro spinal fluid at 3 mg/kg, sc; format: ADME, organism-based; design: dose 3 mg/kg, route subcutaneous; details: in vivo
[34] = tested on: Plasma; test: Drug level in Wistar Kyoto rat plasma at 10 mg/kg, sc; format: ADME, organism-based; design: dose 10 mg/kg, route subcutaneous; details: in vivo
[35] = tested on: Brain; test: Drug level in Wistar Kyoto rat brain at 10 mg/kg, sc; format: ADME, organism-based; design: dose 10 mg/kg, route subcutaneous; details: in vivo
[36] = tested on: Cerebrospinal fluid; test: Drug level in Wistar Kyoto rat cerebro spinal fluid at 10 mg/kg, sc; format: ADME, organism-based; design: dose 10 mg/kg, route subcutaneous; details: in vivo
[37] = tested on: Plasma; test: Drug level in Wistar Kyoto rat plasma at 30 mg/kg, sc; format: ADME, organism-based; design: dose 30 mg/kg, route subcutaneous; details: in vivo
[38] = tested on: Brain; test: Drug level in Wistar Kyoto rat brain at 30 mg/kg, sc; format: ADME, organism-based; design: dose 30 mg/kg, route subcutaneous; details: in vivo
[39] = tested on: Cerebrospinal fluid; test: Drug level in Wistar Kyoto rat cerebro spinal fluid at 30 mg/kg, sc; format: ADME, organism-based; design: dose 30 mg/kg, route subcutaneous; details: in vivo

`O=C(NCCN1CCCN(C[C@H]2COc3ccccc3O2)CC1)c1cccnc1Oc1ccccc1` gave a Ki [1] of 0.9 nM, a Ki [2] of 14.3 nM and a Ki [3] of 94.4 nM. For the same compound, the Ki [4] was 1.9 nM, the Ki [5] was 31.3 nM and the Ki [6] was greater than 442 nM. For the same compound, the Ratio Ki [7] was 16, the Ratio Ki [8] was 106 and the Ratio Ki [9] was 16. For the same compound, the Ratio Ki [10] was greater than 232, the Activity [11] was 1.7 nM and the Activity [12] was 177 nM. The Activity [13] was 7.6 nM, the Activity [14] was 59 nM and the Activity [15] was 141 nM. For the same compound, the Activity [16] was 44%, the Activity [17] was 2400 nM and the Activity [18] was 690 nM. It also gave an Activity [19] of 530 nM, an Activity [20] of 820 nM and an Activity [21] of 75 nM. The Activity [22] was 10%, the Activity [23] was 4% and the Activity [24] was 1600 nM. For the same compound, the Activity [25] was 27%, the Activity [26] was 1790 nM and the Activity [27] was 3.48 µM. For the same compound, the Activity [28] was 1480 nM, the Activity [29] was 33% and the Activity [30] was 1900 nM. For the same compound, the Cp [31] was 744 ng/mL, the Drug uptake [32] was 173 ngequiv/g and the Drug uptake [33] was 7.39 ng/mL. It also gave a Cp [34] of 2100 ng/mL, a Drug uptake [35] of 630 ngequiv/g and a Drug uptake [36] of 26.9 ng/mL. The Cp [37] was 6190 ng/mL, the Drug uptake [38] was 2230 ngequiv/g and the Drug uptake [39] was 113 ng/mL.

`O=C(NCCN1CCCN(CC2COc3ccccc3O2)CC1)c1cccnc1Oc1ccccc1` (configuration not stated) gave a Ki [1] of 5 nM, a Ki [2] of 49 nM and a Ki [3] of 220 nM. For the same compound, the Ki [4] was 25 nM, the Ki [5] was 132 nM and the Ki [6] was 474 nM. The Ratio Ki [7] was 10, the Ratio Ki [8] was 44 and the Ratio Ki [9] was 5. The Ratio Ki [10] was 19.

`O=C(NCCN1CCCN(C[C@@H]2COc3ccccc3O2)CC1)c1cccnc1Oc1ccccc1` gave a Ki [1] of 9.2 nM, a Ratio Ki [7] of 12 and a Ratio Ki [8] of 53.

Work on `c1ccc(Oc2ncccc2-c2noc(CN3CCCN(CC4COc5ccccc5O4)CC3)n2)cc1` (configuration not stated) yielded a Ki [1] of 1.9 nM, a Ki [2] of 15.3 nM and a Ki [3] of 44.8 nM. It also gave a Ki [4] of 1.7 nM, a Ki [5] of 5.2 nM and a Ki [6] of 15.4 nM. It also gave a Ratio Ki [7] of 8, a Ratio Ki [8] of 23 and a Ratio Ki [9] of 3. The Ratio Ki [10] was 9.

In the case of `CCCCOc1cccc(C(=O)NCCN2CCCN(CC3COc4ccccc4O3)CC2)n1` (configuration not stated), the Ki [1] is reported as 0.6 nM, the Ki [2] is reported as 10.9 nM and the Ki [3] is reported as 118 nM. The Ki [4] was 3.8 nM, the Ki [5] was 14.1 nM and the Ki [6] was 48.4 nM. It also gave a Ratio Ki [7] of 18, a Ratio Ki [8] of 195 and a Ratio Ki [9] of 4. The Ratio Ki [10] was 13.

`O=C(NCCN1CCN(CC2COc3ccccc3O2)CC1)c1cccnc1Oc1ccccc1` (configuration not stated) showed a Ki [1] of 3 nM, a Ki [2] of 8 nM and a Ki [3] of 27 nM. It also gave a Ratio Ki [7] of 3 and a Ratio Ki [8] of 9.

For `O=C(NCCN1CCCN(CC2COc3ccccc3O2)CC1)c1cccnc1` (configuration not stated), the Ki [1] was 15.7 nM, the Ki [2] was 17.9 nM and the Ki [3] was 443 nM. For the same compound, the Ratio Ki [7] was 1 and the Ratio Ki [8] was 28.
